Reference: ChEMBL document CHEMBL1201862, “PubChem BioAssay data set” (2004)
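Tested at 5 concentrations; 48 h exposure; 96-well plates; endpoints linearly interpolated, else capped at highest concentration. Abbreviation: GI50, concentration required for 50% inhibition of growth.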 The source made the active and inactive calls. Rule as the data show it: active = GI50 up to about 1.1 µM and inactive = higher.

Experiments:
Test in all cases: NCI-60 cell line screen, 48 h
A549 = tested on: A549
CAKI-1 = tested on: CAKI-1
EKVX = tested on: EKVX
HCT-116 = tested on: HCT-116
HOP-92 = tested on: HOP-92
MDA-N = tested on: MDA-N
NCI-H226 = tested on: NCI-H226
NCI-H23 = tested on: NCI-H23
NCI-H460 = tested on: NCI-H460
SK-MEL-5 = tested on: SK-MEL-5
SN12C = tested on: SN12C
SNB-75 = tested on: SNB-75
SW-620 = tested on: SW-620
T47D = tested on: T47D
TK-10 = tested on: TK-10
HL-60 = tested on: HL-60
LOX IMVI = tested on: LOX IMVI
MOLT-4 = tested on: MOLT-4

Measured: GI50

CCc1ncc(CO)n1Cc1cccc2ccccc12
inactive: A549 > 100 µM | CAKI-1 > 100 µM | EKVX > 100 µM | HCT-116 > 100 µM | HOP-92 86.1 µM | MDA-N > 100 µM | NCI-H226 > 100 µM | NCI-H23 > 100 µM | NCI-H460 > 100 µM | SK-MEL-5 > 100 µM | SN12C > 100 µM | SNB-75 31.3 µM | SW-620 > 100 µM | T47D 77.3 µM | TK-10 99.5 µM

O=C(O)/C(O)=C\C(=O)c1ccc(Br)cc1
inactive: A549 > 100 µM | CAKI-1 > 100 µM | EKVX 2.98 µM | HCT-116 > 100 µM | HL-60 > 100 µM | HOP-92 > 100 µM | LOX IMVI > 100 µM | MDA-N > 100 µM | MOLT-4 > 100 µM | NCI-H226 > 100 µM | NCI-H23 > 100 µM | NCI-H460 > 100 µM | SK-MEL-5 > 100 µM | SN12C > 100 µM | SNB-75 > 100 µM | SW-620 > 100 µM | T47D > 100 µM | TK-10 > 100 µM

CCOC(=O)C1=C(C)NC(C)=C(C(=O)OCC)C1c1ccc(C)cc1
inactive: A549 47.2 µM | CAKI-1 48.6 µM | EKVX 42.7 µM | HCT-116 36.1 µM | HOP-92 13.1 µM | LOX IMVI 31.8 µM | MDA-N 31.8 µM | MOLT-4 25.9 µM | NCI-H226 35 µM | NCI-H23 34.5 µM | NCI-H460 22.9 µM | SK-MEL-5 18.8 µM | SN12C 22.1 µM | SNB-75 24.8 µM | SW-620 45.8 µM | T47D 39.9 µM | TK-10 66.8 µM

O=C(/C=C\Nc1ccccc1O)C(Cl)(Cl)Cl
inactive: A549 48.2 µM | CAKI-1 34.9 µM | EKVX 45.7 µM | HCT-116 37.8 µM | HL-60 21.8 µM | HOP-92 70.5 µM | LOX IMVI 31.8 µM | MDA-N 25.3 µM | MOLT-4 27.7 µM | NCI-H226 > 100 µM | NCI-H23 35.7 µM | NCI-H460 53.7 µM | SK-MEL-5 > 100 µM | SN12C 72.8 µM | SNB-75 30.3 µM | SW-620 > 100 µM | T47D 28 µM | TK-10 78.5 µM

CC1(C)[C@@H](Cn2cnc3c(Cl)nc(N)nc32)CC[C@@]1(C)CO
inactive: A549 > 100 µM | CAKI-1 28.2 µM | EKVX 58.9 µM | HCT-116 34.3 µM | HOP-92 > 100 µM | LOX IMVI 27.9 µM | MDA-N 32.4 µM | NCI-H226 12.7 µM | SK-MEL-5 18.7 µM | SN12C 57.3 µM | SNB-75 > 100 µM | SW-620 42.4 µM | T47D > 100 µM | TK-10 > 100 µM
